Like-named read-outs stand apart in the source and are kept apart here.

The target of one series is bovine serum albumin (Bos taurus, UniProt P02769). Briefly: Serum protein binding assay (ultrafiltration, UV-Vis). In kind it is in vitro ADME. Conditions: bovine serum albumin 8 wt.% in PBS, 1 hour at room temperature, 30 kDa filter. How it is done:
A 5 mM stock solution of the iron chelate complex under investigation was prepared in PBS, and the UV/visible spectrum of the solution was acquired to determine the wavelength of the absorbance maximum (λmax). An aliquot of the stock solution (500 μL) was added to a PBS solution (2 mL) containing bovine serum albumin (8 wt.%). A control sample was prepared by diluting a second aliquot of the stock solution (500 μL) with PBS (2 mL). The samples were vortexed briefly and then allowed to stand for 1 hour at room temperature. At the stipulated time, the resulting solutions were transferred to Amicon Ultra filters (4 mL, MWCO = 30 kDa). The solutions were centrifuged (3000 rcf, 15 min), and the permeate was taken directly for UV-Vis measurement. The wavelength and intensity of λmax in the visible region for the solution were recorded. The relative amount of free and protein-bound agent was calculated from the λmax intensity ratio of the assay to control samples.

Series [1] is described as follows: Relaxivity determination (r1, r2) on Bruker minispec mq60. In kind it is physicochemical. The following applies: PBS, 60 MHz, 40°C. As for the experimental part: A stock solution having a concentration of 1 mM of the CA of interest was prepared in phosphate-buffered saline (PBS), and the iron concentration was verified by elemental analysis. Separate 0.75 mM, 0.50 mM, and 0.25 mM samples were prepared from the stock by dilution in PBS, and T1 and T2 relaxations times were recorded in triplicate for each sample on a Bruker minispec mq60 instrument (60 MHz, 40°C). The relaxivities (r1 and r2) were obtained as the gradient of 1/Tx (x = 1, 2) plotted against Fe chelate concentration following linear least squares regression analysis.

A short description of series [2]: Ascorbic acid oxidation assay (redox stability). The following applies: iron chelate 20 μM (30 mol%), ascorbic acid 67 μM in PBS, 45 minutes, air oxidation. As for the experimental part:
The UV-Vis spectrum of an ascorbic acid solution (67 μM and 12 μg/mL) in PBS (3 mL) was recorded. The absorbance intensity at λmax = 265 nm was observed. An aliquot (30 μL) of the iron chelate of ethylenediaminetetraacetic acid (Fe-EDTA) in PBS (2 mM, 0.7 mg/mL) was added to afford a catalytic quantity of Fe-EDTA (20 μM, 30 mol%) with respect to ascorbic acid. The absorbance intensity (λmax = 265 nm) was recorded at intervals of 1 minute for a period of 45 minutes and the data normalized to the t0 absorbance. The experiment was then repeated identically using a solution of the iron chelate complex under investigation (20 μM, 30 mol%), and the results were plotted as a function of the percent initial ascorbic acid signal versus elapsed time (min).

On the set-up of series [3]: method as in PMID 16230904. Conditions: in water at 1.5 T; cited from earlier work.
The conditions of series [4]: cited from earlier work.

Chain of bovine serum albumin (P02769 25-607): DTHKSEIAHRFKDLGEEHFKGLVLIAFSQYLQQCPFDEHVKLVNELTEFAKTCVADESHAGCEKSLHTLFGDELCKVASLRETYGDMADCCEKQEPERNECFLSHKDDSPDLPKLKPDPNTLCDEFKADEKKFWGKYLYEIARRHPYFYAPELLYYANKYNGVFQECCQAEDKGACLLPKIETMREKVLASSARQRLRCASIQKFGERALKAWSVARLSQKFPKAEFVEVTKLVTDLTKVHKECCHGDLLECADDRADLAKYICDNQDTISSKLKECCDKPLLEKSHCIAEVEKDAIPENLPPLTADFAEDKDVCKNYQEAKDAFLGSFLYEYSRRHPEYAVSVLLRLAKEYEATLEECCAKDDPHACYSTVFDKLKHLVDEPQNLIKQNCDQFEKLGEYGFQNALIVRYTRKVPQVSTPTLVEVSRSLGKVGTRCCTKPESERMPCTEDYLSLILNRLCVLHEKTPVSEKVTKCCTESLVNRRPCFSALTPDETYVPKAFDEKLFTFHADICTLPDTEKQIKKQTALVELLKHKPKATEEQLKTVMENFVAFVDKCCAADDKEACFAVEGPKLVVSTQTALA

`O=C1CN2CCN3CC(=O)[O][Fe]([O]1)([O]c1ccccc1C2)[O]c1ccccc1C3` [Fe-1]: the Protein binding on bovine serum albumin is given as 33%. In series [1], this compound had a r1 of 0.49 mM⁻¹ s⁻¹.
As for `O=C1CN2CCN3CC(=O)[O][Fe]([O]1)([O]c1ccc(S(=O)(=O)O)cc1C2)[O]c1ccc(S(=O)(=O)O)cc1C3` [Fe-2], the “pseudo-first-rate time constant for ascorbic acid consumption, relative to Fe-EDTA” value in series [2] was less than 0.5%. The compound also displayed a r1 in series [1] of 0.9 mM⁻¹ s⁻¹.
Regarding `O=P1(O)CN2CCN3Cc4ccccc4[O][Fe]([O]c4ccccc4C2)([O]1)[O]P(=O)(O)C3` [Fe-3], the “pseudo-first-rate time constant for ascorbic acid consumption, relative to Fe-EDTA” value in series [2] is on record as less than 0.5%. This compound returned a Protein binding at bovine serum albumin of 49%. The compound also displayed a r1 in series [1] of 1.3 mM⁻¹ s⁻¹.
Turning to `O=P1(O)CN2CCN3Cc4cccc(CO)c4[O][Fe]([O]c4c(CO)cccc4C2)([O]1)[O]P(=O)(O)C3` [Fe-4], the Protein binding on bovine serum albumin was 20%. The same compound displayed a r1 in series [1] of 0.9 mM⁻¹ s⁻¹.
Take `CNC[C@H](O)[C@@H](O)[C@H](O)[C@H](O)CO.CNC[C@H](O)[C@@H](O)[C@H](O)[C@H](O)CO.O=C([O-])CN(CCN(CC(=O)[O-])CC(=O)O)CCN(CC(=O)[O-])CC(=O)O.[Gd+3]` [Gd-1, Gadopentetate dimeglumine]: the r1 in series [3] was 3.3 mM⁻¹ s⁻¹.
Regarding `O=C(O)CN(CCN(CC(=O)O)Cc1ccccc1O)Cc1ccccc1O` [HBED, N,N′-bis(2-hydroxyphenyl)ethylenediamine-N,N′-diacetic acid], the “log K (Fe[III] binding)” value in series [4] is listed as 39.7.

Source of the values: publication PMC6961518, “Fe-HBED Analogs: A Promising Class of Iron-Chelate Contrast Agents for Magnetic Resonance Imaging” (Contrast Media & Molecular Imaging, 2019).
